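Five compound concentrations were applied to cells in 96-well plates for 48 hours; endpoints were derived by simple linear interpolation of the resulting dose-response curve. At the GI50, growth is halved.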 The source made the active and inactive calls. Rule as the data show it: active = GI50 up to about 1.1 µM and inactive = higher.

Among the test systems are RXF 393; T47D; Hs-578T; SK-MEL-5; NCI-H23; IGROV-1; SNB-19; 786-0; TK-10; HL-60; MDA-MB-231; SN12C; M14; CCRF-CEM; HCT-15; SR; SNB-75; K562; COLO 205; HCT-116.
Experiment in all cases: NCI anticancer screen, dose series, 48 h

`O=C1C(=C(I)I)c2ccccc2-c2ccccc21`: the GI50 in the experiment on RXF 393 is 1.68 µM (inactive); in the experiment with T47D, 2.3 µM (inactive); with Hs-578T, 7.83 µM (inactive); with SK-MEL-5, 5.37 µM (inactive); in the experiment on NCI-H23, 5.07 µM (inactive); in the experiment on IGROV-1 it was 6.07 µM (inactive). Besides, the GI50 in the experiment on SNB-19 was 14.4 µM (inactive); with 786-0, 2.07 µM (inactive); in the experiment on TK-10 it was 1.88 µM (inactive); in the experiment with HL-60, 0.998 µM (active); with MDA-MB-231 it was 2.03 µM (inactive); in the experiment with SN12C, 2.05 µM (inactive). Besides, the GI50 in the experiment with M14 is 3.02 µM (inactive); in the experiment on CCRF-CEM, 0.386 µM (active); in the experiment on HCT-15 it was 2.47 µM; in the experiment with SR it was 2.33 µM (inactive); in the experiment with SNB-75, 2.58 µM (inactive); with K562, 1.85 µM (inactive). Also, the values for the GI50 with COLO 205 and in the experiment with HCT-116 were 1.56 µM (inactive) and 2.32 µM (inactive), respectively.
In the case of `COc1ccc(-c2nc(N)n(C)c2SSc2c(-c3ccc(OC)cc3)nc(N)n2C)cc1`, the GI50 was 2.74 µM (inactive) in the experiment with RXF 393; 1.86 µM (inactive) in the experiment with T47D; 9.16 µM (inactive) in the experiment on Hs-578T; 2.08 µM (inactive) with SK-MEL-5; 5.14 µM (inactive) with NCI-H23; 14.3 µM (inactive) with IGROV-1. In addition, the GI50 is 12.9 µM (inactive) in the experiment on SNB-19; 5.77 µM (inactive) in the experiment with 786-0; 14.5 µM (inactive) with TK-10; 2.59 µM (inactive) in the experiment on HL-60; 6.78 µM (inactive) in the experiment with MDA-MB-231; 11.3 µM (inactive) with SN12C. The GI50 was 2.19 µM (inactive) in the experiment with M14; 2.76 µM (inactive) in the experiment on CCRF-CEM; 3.04 µM in the experiment on HCT-15; 2.23 µM (inactive) in the experiment on SR; 3.34 µM (inactive) with SNB-75; 2.83 µM (inactive) with K562. Also, the GI50 is 2.19 µM (inactive) with COLO 205 and 2.65 µM (inactive) in the experiment on HCT-116.
Take `CC1(C)OC2[C@@H](CO[C@@]3([C@H]4OC(C)(C)O[C@@H]4CO)OC(C)(C)O[C@@H]23)O1` (stereo not given in full): the GI50 in the experiment with RXF 393, with T47D, with Hs-578T, in the experiment on SK-MEL-5, in the experiment on NCI-H23 and in the experiment with IGROV-1 was > 100 µM (inactive) throughout. Moreover, the GI50 in the experiment with SNB-19, in the experiment with 786-0, with TK-10, in the experiment with HL-60, in the experiment with MDA-MB-231 and with SN12C was > 100 µM (inactive) in each case. The GI50 in the experiment with M14 is > 100 µM (inactive); in the experiment with CCRF-CEM, > 100 µM (inactive); with HCT-15, greater than 100 µM; in the experiment on SR, > 100 µM (inactive); in the experiment on SNB-75 it was > 100 µM (inactive); in the experiment on K562, > 100 µM (inactive). The GI50 in the experiment with COLO 205 and with HCT-116 was > 100 µM (inactive) in each case.
Consider `C=CCOc1ccc(C2(c3ccc(OCC=C)cc3)C(=O)Nc3ccccc32)cc1`, for which the GI50 was > 10 µM (inactive) in the experiment on RXF 393; 8.13 µM (inactive) with T47D; 1.46 µM (inactive) in the experiment on Hs-578T; > 10 µM (inactive) in the experiment with SK-MEL-5; > 10 µM (inactive) in the experiment on NCI-H23; > 10 µM (inactive) in the experiment with IGROV-1. For the same molecule, the GI50 with SNB-19, in the experiment with 786-0, in the experiment with TK-10, with HL-60, in the experiment with MDA-MB-231 and with SN12C was > 10 µM (inactive) each time. The GI50 with M14 was > 10 µM (inactive); with CCRF-CEM, > 10 µM (inactive); in the experiment with HCT-15, greater than 10 µM; in the experiment with SR, > 10 µM (inactive); with SNB-75, > 10 µM (inactive); in the experiment with K562, > 10 µM (inactive). The results for the GI50 with COLO 205 and in the experiment with HCT-116 were 7.19 µM (inactive) and > 10 µM (inactive), respectively.
As to `C[C@]12CC[C@H](O)C[C@@H]1CC[C@@H]1[C@@H]2CC[C@]2(C)[C@@H](C3=CC(=O)OC3)CC[C@]12O`, the GI50 in the experiment with RXF 393 was 0.736 µM (active); in the experiment with T47D, 3.77 µM (inactive); in the experiment on Hs-578T it was 4.21 µM (inactive); with SK-MEL-5 it was 1.15 µM (inactive); in the experiment with NCI-H23 it was 1.87 µM (inactive); in the experiment with IGROV-1 it was 3.26 µM (inactive). For the same molecule, the GI50 was 4.95 µM (inactive) with SNB-19; 1.95 µM (inactive) in the experiment with 786-0; 4 µM (inactive) in the experiment on TK-10; 2.88 µM (inactive) with HL-60; 8.89 µM (inactive) with MDA-MB-231; 0.964 µM (active) in the experiment on SN12C. Further, the GI50 in the experiment on M14 was 3.45 µM (inactive); with CCRF-CEM, 0.76 µM (active); in the experiment with HCT-15, 1.86 µM; with SR it was > 100 µM (inactive); in the experiment with SNB-75 it was 3.85 µM (inactive); in the experiment on K562, 3.97 µM (inactive). Also, the values for the GI50 in the experiment on COLO 205 and with HCT-116 were 3.18 µM (inactive) and 1.73 µM (inactive), respectively.
In the case of `C=C1C(=O)OC2C3C(=C)[C@@H](OC(C)=O)CC3C(C)=CC(OC(=O)C(C)(OC(C)=O)C(C)OC(C)=O)[C@@H]12` (stereo not given in full), the GI50 in the experiment on RXF 393 was 12.3 µM (inactive); with T47D it was 23.3 µM (inactive); in the experiment on Hs-578T it was 23.4 µM (inactive); with SK-MEL-5, 12.6 µM (inactive); in the experiment with NCI-H23, 18.6 µM (inactive); with IGROV-1, 18.5 µM (inactive). In addition, the GI50 is 85.7 µM (inactive) with SNB-19; 16.6 µM (inactive) with 786-0; 14.1 µM (inactive) in the experiment with TK-10; 2.52 µM (inactive) in the experiment with HL-60; 18.5 µM (inactive) in the experiment with MDA-MB-231; 15.7 µM (inactive) in the experiment with SN12C. The GI50 with M14 was 14.6 µM (inactive); in the experiment on CCRF-CEM, 3.25 µM (inactive); in the experiment with HCT-15, 12.8 µM; in the experiment on SR, 22.2 µM (inactive); in the experiment on SNB-75, 18.9 µM (inactive); in the experiment on K562, 7.29 µM (inactive). The figures for the GI50 in the experiment on COLO 205 and in the experiment with HCT-116 were 14.8 µM (inactive) and 11 µM (inactive), respectively.
With `CCOC(=O)NC(Nc1ccc(OC(F)(F)F)cc1)(C(F)(F)F)C(F)(F)F`, the GI50 in the experiment on RXF 393, with T47D, in the experiment on Hs-578T, in the experiment with SK-MEL-5, in the experiment on NCI-H23 and in the experiment on IGROV-1 was > 100 µM (inactive) throughout. In addition, the GI50 in the experiment with SNB-19, in the experiment with 786-0, in the experiment on TK-10, in the experiment on HL-60, in the experiment on MDA-MB-231 and with SN12C was > 100 µM (inactive) throughout. The GI50 in the experiment on M14 was > 100 µM (inactive); in the experiment on CCRF-CEM it was > 100 µM (inactive); with HCT-15, greater than 100 µM; in the experiment on SR, > 100 µM (inactive); with SNB-75, > 100 µM (inactive); in the experiment on K562, > 100 µM (inactive). In addition, the GI50 with COLO 205 and in the experiment on HCT-116 was > 100 µM (inactive) throughout.

For the origin of these results see ChEMBL document CHEMBL1201862, “PubChem BioAssay data set” (2004).
